Patent US20260138976A1 (Hoffmann-La Roche Inc., priority 2022, published 2026)

Tests used:
[1] = molecular target: T1, DGKζ (hDGKzeta(1-928)-N-His) (Homo sapiens, UniProt Q13574); test: In vitro DGK inhibition assay, DGKzeta ADP Glo (in house); type: biochemical; conditions: 2 nM DGKζ, 50 μM ATP, 125 uM DLG in liposomes, 1 hour reaction
T1 construct: hDGKzeta(1-928)-N-His; His (N); made in house; host or cells: Sf21 insect cells (baculovirus)
Summary of the method: (§1)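 ADP-Glo luminescence measured ADP formed over 1 h by Sf21-expressed full-length human enzymes: DGKα at 4 nM with 25 µM ATP, DGKζ at 2 nM with 50 µM ATP, both on 125 µM DLG in PS/PC liposomes. Dose–response used 11 threefold dilutions at 2% final DMSO.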

primary human T-cells = test: IL2 secretion measurements (24 h, CD3-stimulated T-cells, PBS counter screen); type: cell-based; conditions: for Emax IL2 (% activation): CD3 condition, normalised to DMSO (neutral) and 20 μM reference compound A1 = 100%; for EC50: Homo sapiens, T-cell, CD3-stimulated primary human T-cells, IL2 secretion, fitted sigmoidal curve, read-out: Tcell IL2 CD3 EC50
Summary of the method: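 IL-2 secretion was measured by ProQuantum or ELISA after 24 h culture of expanded human T-cells with compound, on CD3-antibody-coated plates or PBS counter-screen plates. Dosing used 5–6 points from a 20 or 10 μM final top at 3.333-fold steps in 0.2% DMSO. EC50/Emax were scaled between DMSO and 20 μM reference A1.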

[2] = molecular target: T2, DGKα (hDGKalpha(1-735)-N-His) (Homo sapiens, UniProt P23743); test: In vitro DGK inhibition assay, DGKalpha ADP Glo (in house); type: biochemical; conditions: 4 nM DGKα, 25 μM ATP, 125 uM DLG in liposomes, 1 hour reaction
T2 construct: hDGKalpha(1-735)-N-His; His (N); made in house; host or cells: Sf21 insect cells (baculovirus)
T2 sequence (P23743 whole entry): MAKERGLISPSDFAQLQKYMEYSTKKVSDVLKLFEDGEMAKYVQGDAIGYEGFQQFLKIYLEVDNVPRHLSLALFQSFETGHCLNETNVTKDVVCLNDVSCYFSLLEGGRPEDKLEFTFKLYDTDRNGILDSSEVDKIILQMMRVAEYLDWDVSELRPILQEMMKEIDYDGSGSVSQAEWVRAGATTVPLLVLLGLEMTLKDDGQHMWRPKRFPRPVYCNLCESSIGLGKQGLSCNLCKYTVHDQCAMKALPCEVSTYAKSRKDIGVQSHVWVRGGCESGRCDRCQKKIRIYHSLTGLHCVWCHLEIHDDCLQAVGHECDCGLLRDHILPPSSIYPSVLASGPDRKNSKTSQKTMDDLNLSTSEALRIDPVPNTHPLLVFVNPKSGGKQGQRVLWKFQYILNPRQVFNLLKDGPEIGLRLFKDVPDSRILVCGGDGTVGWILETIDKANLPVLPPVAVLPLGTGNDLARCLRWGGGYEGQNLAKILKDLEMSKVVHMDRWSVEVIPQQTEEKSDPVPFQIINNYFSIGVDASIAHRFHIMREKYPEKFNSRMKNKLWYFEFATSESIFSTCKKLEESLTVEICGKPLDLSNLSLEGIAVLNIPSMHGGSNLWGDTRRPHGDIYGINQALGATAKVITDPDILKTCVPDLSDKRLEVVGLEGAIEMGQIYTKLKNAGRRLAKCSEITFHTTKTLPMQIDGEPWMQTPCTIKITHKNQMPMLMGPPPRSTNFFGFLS
Summary of the method: as §1

T1 sequence (Q13574 whole entry): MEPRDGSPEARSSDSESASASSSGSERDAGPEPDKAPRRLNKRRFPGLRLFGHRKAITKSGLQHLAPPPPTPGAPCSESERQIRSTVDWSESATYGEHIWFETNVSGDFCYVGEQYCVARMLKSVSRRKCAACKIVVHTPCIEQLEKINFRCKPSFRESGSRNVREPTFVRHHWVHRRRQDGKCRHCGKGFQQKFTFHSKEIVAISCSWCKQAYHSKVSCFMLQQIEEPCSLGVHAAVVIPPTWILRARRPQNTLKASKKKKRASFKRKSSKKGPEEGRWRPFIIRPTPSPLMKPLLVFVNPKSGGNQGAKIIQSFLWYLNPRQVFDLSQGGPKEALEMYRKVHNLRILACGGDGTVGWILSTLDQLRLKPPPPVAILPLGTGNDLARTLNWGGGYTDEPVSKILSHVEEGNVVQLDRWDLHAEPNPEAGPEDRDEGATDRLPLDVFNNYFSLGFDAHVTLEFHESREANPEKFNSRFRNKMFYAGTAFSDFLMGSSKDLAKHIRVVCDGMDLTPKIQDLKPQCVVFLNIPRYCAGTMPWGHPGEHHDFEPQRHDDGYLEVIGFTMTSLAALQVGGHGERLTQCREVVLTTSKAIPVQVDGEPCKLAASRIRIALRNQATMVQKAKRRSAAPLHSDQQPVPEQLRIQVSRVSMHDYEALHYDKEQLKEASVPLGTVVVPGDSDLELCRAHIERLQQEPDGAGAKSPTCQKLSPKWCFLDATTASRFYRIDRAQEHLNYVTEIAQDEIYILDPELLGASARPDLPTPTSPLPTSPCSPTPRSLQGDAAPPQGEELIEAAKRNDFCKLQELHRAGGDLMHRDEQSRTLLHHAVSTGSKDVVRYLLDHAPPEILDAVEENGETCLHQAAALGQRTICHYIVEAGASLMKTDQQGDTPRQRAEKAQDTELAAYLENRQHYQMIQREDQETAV

SMILES | IC50 [1] | IC50 [2] | Emax IL2 (% activation) (primary human T-cells) | EC50 (primary human T-cells)
CC(C)(C#N)c1nnc(-c2ccc3c(c2)N(Cc2ccc(-c4ccc(OC(F)F)cn4)cc2)C(=O)[C@@H](N)CS3(=O)=O)o1 [Example 108, 2-[5-[(3R)-3-amino-5-[[4-[5-(difluoromethoxy)-2-pyridyl]phenyl]methyl]-1,1,4-trioxo-2,3-dihydro-1λ^6,5-benzothiazepin-7-yl]-1,3,4-oxadiazol-2-yl]-2-methyl-propanenitrile] | 939 nM | 1390 nM | 245 % activation | 1560 nM
CC(C)(C#N)c1nnc(-c2ccc3c(c2)N(Cc2ccc(-c4cc(OC(F)F)ccn4)cc2)C(=O)[C@@H](N)CS3(=O)=O)o1 [Example 110, 2-[5-[(3R)-3-amino-5-[[4-[4-(difluoromethoxy)-2-pyridyl]phenyl]methyl]-1,1,4-trioxo-2,3-dihydro-1λ^6,5-benzothiazepin-7-yl]-1,3,4-oxadiazol-2-yl]-2-methyl-propanenitrile] | 507 nM | > 60000 nM | 85 % activation | 4110 nM
CC(C)(C#N)c1nnc(-c2ccc3c(c2)N(Cc2ccc(-c4cnc(OC(F)(F)F)cn4)cc2)C(=O)[C@@H](N)CS3(=O)=O)o1 [Example 112] | 473 nM | 1750 nM | 139 % activation | 832 nM
Cc1nc(-c2ccc(CN3C(=O)[C@@H](N)CS(=O)(=O)c4ccc(-c5nnc(C(C)(C)C#N)o5)cc43)cc2)ccc1C(F)(F)F [Example 114] | 3720 nM | > 60000 nM | 48 % activation | 1050 nM
CC(C)(C#N)c1nnc(-c2ccc3c(c2)N(Cc2ccc(-c4ncc(OC(F)(F)F)cn4)cc2)C(=O)[C@@H](N)CS3(=O)=O)o1 [Example 117] | 1010 nM | 1140 nM | 114 % activation | 587 nM
CC(C)(C#N)c1nnc(-c2ccc3c(c2)N(Cc2ccc(-c4ccc(C5CC5)cn4)cc2)C(=O)[C@@H](N)CS3(=O)=O)o1 [Example 118, 2-[5-[(3R)-3-amino-5-[[4-(5-cyclopropyl-2-pyridyl)phenyl]methyl]-1,1,4-trioxo-2,3-dihydro-1λ^6,5-benzothiazepin-7-yl]-1,3,4-oxadiazol-2-yl]-2-methyl-propanenitrile] | 814 nM | 16400 nM | 172 % activation | 4070 nM
CC(C)(C#N)c1nnc(-c2ccc3c(c2)N(Cc2ccc(-c4ccc(OC(F)(F)F)cc4)nc2)C(=O)[C@@H](N)CS3(=O)=O)o1 [Example 119, 2-[5-[(3R)-3-amino-1,1,4-trioxo-5-[[6-[4-(trifluoromethoxy)phenyl]-3-pyridyl]methyl]-2,3-dihydro-1λ^6,5-benzothiazepin-7-yl]-1,3,4-oxadiazol-2-yl]-2-methyl-propanenitrile] | 1630 nM | 3450 nM | 102 % activation | 1280 nM
CC(C)(C#N)c1nnc(-c2ccc3c(c2)N(Cc2ccc(-n4nnc(C(F)(F)F)n4)cc2)C(=O)[C@@H](N)CS3(=O)=O)o1 [Example 120, 2-[5-[(3R)-3-amino-1,1,4-trioxo-5-[[4-[5-(trifluoromethyl)tetrazol-2-yl]phenyl]methyl]-2,3-dihydro-1λ^6,5-benzothiazepin-7-yl]-1,3,4-oxadiazol-2-yl]-2-methyl-propanenitrile] | 2020 nM | 13500 nM | 135 % activation | 1330 nM
COc1ccc(-c2ccc(CN3C(=O)[C@@H](N)CS(=O)(=O)c4ccc(-c5nnc(C(C)(C)C#N)o5)cc43)cc2)nc1 [Example 125] | 930 nM | 3520 nM | 97 % activation | 4280 nM
CC(C)(C#N)c1nnc(-c2ccc3c(c2)N(Cc2ccc(-c4cc(OC(F)(F)F)ccn4)cc2)C(=O)[C@@H](N)CS3(=O)=O)o1 [Example 126, 2-[5-[(3R)-3-amino-1,1,4-trioxo-5-[[4-[4-(trifluoromethoxy)-2-pyridyl]phenyl]methyl]-2,3-dihydro-1λ^6,5-benzothiazepin-7-yl]-1,3,4-oxadiazol-2-yl]-2-methyl-propanenitrile] | 541 nM | 4380 nM | 254 % activation | 2110 nM

Further lines, with some results ahead:

IC50 [1] | IC50 [2] | SMILES | Emax IL2 (% activation) (primary human T-cells) | EC50 (primary human T-cells)
2370 nM | 14400 nM | CC(C)(C#N)c1nnc(-c2ccc3c(c2)N(Cc2ccc(-c4ccc(C(F)(F)F)cc4)nc2)C(=O)[C@@H](N)CS3(=O)=O)o1 [Example 106] | 121 % activation | 3840 nM
843 nM | 1300 nM | Cn1nc(C(F)(F)F)cc1-c1ccc(CN2C(=O)[C@@H](N)CS(=O)(=O)c3ccc(-c4nnc(C(C)(C)C#N)o4)cc32)cc1 [Example 107, 2-[5-[(3R)-3-amino-5-[[4-[2-methyl-5-(trifluoromethyl)pyrazol-3-yl]phenyl]methyl]-1,1,4-trioxo-2,3-dihydro-1λ^6,5-benzothiazepin-7-yl]-1,3,4-oxadiazol-2-yl]-2-methyl-propanenitrile] | 241 % activation | 1390 nM
864 nM | 2110 nM | CC(F)(F)c1ccc(-c2ccc(CN3C(=O)[C@@H](N)CS(=O)(=O)c4ccc(-c5nnc(C(C)(C)C#N)o5)cc43)cc2)nc1 [Example 109, 2-[5-[(3R)-3-amino-5-[[4-[5-(1,1-difluoroethyl)-2-pyridyl]phenyl]methyl]-1,1,4-trioxo-2,3-dihydro-1λ^6,5-benzothiazepin-7-yl]-1,3,4-oxadiazol-2-yl]-2-methyl-propanenitrile] | 360 % activation | 3400 nM
1130 nM | > 62500 nM | CC(C)(C#N)c1nnc(-c2ccc3c(c2)N(Cc2ccc(-c4ccnc(C(F)(F)F)c4)cc2)C(=O)[C@@H](N)CS3(=O)=O)o1 [Example 111, 2-[5-[(3R)-3-amino-1,1,4-trioxo-5-[[4-[2-(trifluoromethyl)-4-pyridyl]phenyl]methyl]-2,3-dihydro-1λ^6,5-benzothiazepin-7-yl]-1,3,4-oxadiazol-2-yl]-2-methyl-propanenitrile] | 151 % activation | 1860 nM
1130 nM | > 62500 nM | CC(C)(C#N)c1nnc(-c2ccc3c(c2)N(Cc2ccc(-c4ccc(C(F)(F)F)nc4)cc2)C(=O)[C@@H](N)CS3(=O)=O)o1 [Example 113, 2-[5-[(3R)-3-amino-1,1,4-trioxo-5-[[4-[6-(trifluoromethyl)-3-pyridyl]phenyl]methyl]-2,3-dihydro-1λ^6,5-benzothiazepin-7-yl]-1,3,4-oxadiazol-2-yl]-2-methyl-propanenitrile] | 85 % activation | 1320 nM
803 nM | 585 nM | CC(C)(C#N)c1nnc(-c2ccc3c(c2)N(Cc2ccc(-c4cnn(C(F)(F)F)c4)cc2)C(=O)[C@@H](N)CS3(=O)=O)o1 [Example 115, 2-[5-[(3R)-3-amino-1,1,4-trioxo-5-[[4-[1-(trifluoromethyl)pyrazol-4-yl]phenyl]methyl]-2,3-dihydro-1λ^6,5-benzothiazepin-7-yl]-1,3,4-oxadiazol-2-yl]-2-methyl-propanenitrile] | 112 % activation | 507 nM
918 nM | > 62500 nM | CC(C)(C#N)c1nnc(-c2ccc3c(c2)N(Cc2ccc(-c4cc(C(F)(F)F)ccn4)cc2)C(=O)[C@@H](N)CS3(=O)=O)o1 [Example 116, 2-[5-[(3R)-3-amino-1,1,4-trioxo-5-[[4-[4-(trifluoromethyl)-2-pyridyl]phenyl]methyl]-2,3-dihydro-1λ^6,5-benzothiazepin-7-yl]-1,3,4-oxadiazol-2-yl]-2-methyl-propanenitrile] | 87 % activation | 1030 nM
893 nM | 1860 nM | CC(C)(C#N)c1nnc(-c2ccc3c(c2)N(Cc2ccc(-c4nc(C(F)(F)F)co4)cc2)C(=O)[C@@H](N)CS3(=O)=O)o1 [Example 123, 2-[5-[(3R)-3-amino-1,1,4-trioxo-5-[[4-[4-(trifluoromethyl)oxazol-2-yl]phenyl]methyl]-2,3-dihydro-1λ^6,5-benzothiazepin-7-yl]-1,3,4-oxadiazol-2-yl]-2-methyl-propanenitrile] | 144 % activation | 1250 nM
2450 nM | > 60000 nM | CC(C)(C#N)c1nnc(-c2ccc3c(c2)N(Cc2ccc(-c4ncc(C(F)(F)F)cn4)cc2)C(=O)[C@@H](N)CS3(=O)=O)o1 [Example 127, 2-[5-[(3R)-3-amino-1,1,4-trioxo-5-[[4-[5-(trifluoromethyl)pyrimidin-2-yl]phenyl]methyl]-2,3-dihydro-1λ^6,5-benzothiazepin-7-yl]-1,3,4-oxadiazol-2-yl]-2-methyl-propanenitrile] | 112 % activation | 4560 nM
